These results are taken from patent US8957098B2 (ALGIAX Pharmaceuticals GmbH, priority 2010, dated 2015).

Structures are written as SMILES.

Assay [1] deals with severe spinal cord contusion injury in the rat. Description: BBB open field locomotor rating scale after severe spinal cord contusion injury. It is filed as in vivo. The note with it: Example 2; 20 mg/kg/day by gavage for 7 days; effect distinct from DPO 7 to DPO 63 (ANOVA-RM p=0.002); vehicle 8.3.
Protocol: The BBB score is scaled from 0 to 21 points, a BBB score of 0 represents a complete paralysis of the hind limbs and a BBB score of 21 represents normal locomotion. […]
The BBB locomotor rating scale was used according to the present disclosure to assess general locomotor performance. The score was assessed before injury and at 1, 3, 5, 7, 14, 21, 35, 42, 49, 56 and 63 days post operation (dpo) by 2 blinded observers.
The test system is the same in assay [2]. Description: Explorative rearing test after severe spinal cord contusion injury. Type of assay: in vivo. The following applies: Example 1; 20 mg/kg/day by gavage for 7 days. Here is the method: Thirteen week-old female Lewis rats (Charles River, Sulzfeld Germany) were housed under a 12:12 h dark/light regime and allowed free access to water and food. After one week of habituation the animals underwent general anesthesia with a mixture of isoflurane and air (induction: 5% isoflurane, maintenance: 2.2% isofluorane). A Th10 laminectomy was performed without rupturing the dura and a severe contusive SCI (25 gem NYU/MASCIS II impactor) {Gruner, 1992 #3} was induced. After suturing muscle and skin, a subcutaneous (s.c.) injection of 5 ml of Ringers Lactate was given. Bladders were emptied manually 2 times a day until spontaneous voiding returned (usually within 1 week). The lesion severity was verified by the impact velocity and contusion depth of the impactor rod. Animals with an impact velocity error >5% were excluded from further analysis. After injury, individual rats were randomly assigned into a treatment group. The following groups were used:
When placed in a Plexiglas cylinder (18 cm diameter×35.0 cm height), animals spontaneously rear and contact the walls with their forepaws. Numbers, duration and types of rears were analyzed during the 3-min recorded observation period in the cylinder (Himes et al., 2006; Shumsky et al., 2003). A mirror was placed at an angle behind the cylinder so that the forelimbs could be viewed at all times. The testing session was videotaped, and rearing behaviour was scored blindly at a later date.
Different types of rears of increasing heights were observed: • LEVEL 1: Crouch—Animals lifted both forepaws off the ground up to 10 cm; • LEVEL 2: Rear—Animals reared and extended the trunk with the hindlimbs flexed reaching a height between 10 and 15 cm; • LEVEL 3: Stand—Animals reared and extended the trunk with the hindlimbs extended reaching a height over 15 cm.
Occasionally an animal progressed through several types of rears before touching down, in which case the time the animal spend in each rearing height was measured by counting the single video frames. […]

For the molecule `Cc1cc(NC(=O)/C(C#N)=C(\O)C2CC2)ccc1C(F)(F)F` [HR325, 1(3-methyl-4-trifluoromethylphenyl-carbamoyl)-2-cyclopropyl-2oxo-propionitrile], in assay [1], the “BBB score at steady state” value was “around 10”.
On to `Cc1oncc1C(=O)Nc1ccc(C(F)(F)F)cc1` [Leflunomide, N-(4-trifluoromethylphenyl)-5-methylisoxazol-4-carboxamide], for which, in assay [2], the “exploring time of healthy control animals at LEVEL 3 (>15 cm) compared with treated animals” value is listed as “significantly longer”; the “rearing attempts (time and height reached by forepaws) vs vehicle control animals” value was “longer in time and that the forepaws reached higher levels”; the “significantly less time in LEVEL 2 (10-15 cm) when compared to healthy control animals” value is recorded as “this is not the case”.
